Assays:
Type in all cases: cell-based
Details in all cases: Table D16
WEE1 = target: T1, WEE1 (Homo sapiens, UniProt P30291+Q96SW2); test: Western blot degradation of WEE1 (hPBMC)
T1 construct: evaluate the effects of the compounds of the present disclosure on the expression of target proteins in cells; endogenous in cells; host or cells: hPBMC
Description: (§1) Conventional Western blot assay was performed to evaluate the effects of the compounds of the present disclosure on the expression of target proteins in cells.
(§2) (1) Cell Seeding and Protein Harvesting: The selected cells were processed according to the cell seeding procedure and protein harvesting procedure in Table III-2. Table III-2 Cell Seeding and Protein Harvesting Procedures
(§3) (2) To the collected supernatant, 5X SDS sample loading buffer was added, followed by denaturation at 95°C for 5 minutes. The denatured samples were then separated by SDS-PAGE electrophoresis on a polyacrylamide gel. Proteins were transferred to a nitrocellulose membrane (0.45 µm NC membrane), blocked with blocking buffer at room temperature for 1 hour, and subjected to antibody incubation and development procedures according to the antibody manufacturer's instructions (Cell Signaling Technology).
(§4) Half-Maximal Degradation Concentration value (the drug concentration required for degrading proteins by 50%, abbreviated as DC50) reads method: comparing the grayscale values of Western blot bands from drug-treated samples with those from blank DMSO-treated controls, and identifying the drug concentration range at which the grayscale value is half that of the DMSO-treated control bands.
(§5) DC50 values can be calculated using ImageJ software to measure grayscale values of Western blot bands from drug-treated samples. The concentration-response curve is fitted to estimate the drug concentration corresponding to half the grayscale value.
(§6) Target protein remaining (%) refers to the percentage of target protein remaining in hPBMC cells after treatment with protein degrader compounds.
(§7) Calculation method for target protein remaining (%): Use ImageJ software to measure grayscale values of Western blot bands from drug (protein degrader)-treated samples. The grayscale value of drug-treated bands is divided by that of internal control protein bands, and the resulting quotient is normalized to obtain the relative percentage of remaining target protein after protein degrader treatment.
(§8) Target protein degradation rate (%) = 100% - target protein remaining (%).

IKZF1 = target: T2, IKZF1 (Homo sapiens, UniProt Q13422+Q96SW2); test: Western blot degradation of IKZF1 (hPBMC)
T2 construct: evaluate the effects of the compounds of the present disclosure on the expression of target proteins in cells; endogenous in cells; host or cells: hPBMC
T2 sequence (Q13422 whole entry): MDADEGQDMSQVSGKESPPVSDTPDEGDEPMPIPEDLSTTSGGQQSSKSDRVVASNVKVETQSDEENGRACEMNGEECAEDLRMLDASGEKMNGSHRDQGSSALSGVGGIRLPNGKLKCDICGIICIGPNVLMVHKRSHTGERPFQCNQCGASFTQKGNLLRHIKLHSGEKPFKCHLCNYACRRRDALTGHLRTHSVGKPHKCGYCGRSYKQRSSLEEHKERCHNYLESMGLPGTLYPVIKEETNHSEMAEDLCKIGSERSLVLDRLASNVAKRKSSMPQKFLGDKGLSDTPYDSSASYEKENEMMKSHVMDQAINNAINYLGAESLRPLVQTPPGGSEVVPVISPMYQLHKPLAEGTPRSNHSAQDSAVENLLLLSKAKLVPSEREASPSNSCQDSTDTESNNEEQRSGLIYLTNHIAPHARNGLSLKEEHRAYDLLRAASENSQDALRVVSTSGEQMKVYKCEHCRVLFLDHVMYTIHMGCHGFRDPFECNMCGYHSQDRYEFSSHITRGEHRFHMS
T2 sequence (Q96SW2 whole entry): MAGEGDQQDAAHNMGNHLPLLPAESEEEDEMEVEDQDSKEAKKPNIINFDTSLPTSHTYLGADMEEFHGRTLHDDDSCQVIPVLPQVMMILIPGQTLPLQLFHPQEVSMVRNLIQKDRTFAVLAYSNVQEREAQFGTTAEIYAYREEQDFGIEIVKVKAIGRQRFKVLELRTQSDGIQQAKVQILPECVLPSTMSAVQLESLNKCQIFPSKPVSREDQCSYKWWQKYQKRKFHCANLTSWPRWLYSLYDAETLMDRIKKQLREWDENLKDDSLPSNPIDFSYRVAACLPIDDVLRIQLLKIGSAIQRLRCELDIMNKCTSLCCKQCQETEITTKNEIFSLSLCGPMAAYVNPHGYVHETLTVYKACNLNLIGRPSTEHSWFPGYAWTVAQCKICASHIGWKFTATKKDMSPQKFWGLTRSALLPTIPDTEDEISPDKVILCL
T2 sequence (Q16531 whole entry partner): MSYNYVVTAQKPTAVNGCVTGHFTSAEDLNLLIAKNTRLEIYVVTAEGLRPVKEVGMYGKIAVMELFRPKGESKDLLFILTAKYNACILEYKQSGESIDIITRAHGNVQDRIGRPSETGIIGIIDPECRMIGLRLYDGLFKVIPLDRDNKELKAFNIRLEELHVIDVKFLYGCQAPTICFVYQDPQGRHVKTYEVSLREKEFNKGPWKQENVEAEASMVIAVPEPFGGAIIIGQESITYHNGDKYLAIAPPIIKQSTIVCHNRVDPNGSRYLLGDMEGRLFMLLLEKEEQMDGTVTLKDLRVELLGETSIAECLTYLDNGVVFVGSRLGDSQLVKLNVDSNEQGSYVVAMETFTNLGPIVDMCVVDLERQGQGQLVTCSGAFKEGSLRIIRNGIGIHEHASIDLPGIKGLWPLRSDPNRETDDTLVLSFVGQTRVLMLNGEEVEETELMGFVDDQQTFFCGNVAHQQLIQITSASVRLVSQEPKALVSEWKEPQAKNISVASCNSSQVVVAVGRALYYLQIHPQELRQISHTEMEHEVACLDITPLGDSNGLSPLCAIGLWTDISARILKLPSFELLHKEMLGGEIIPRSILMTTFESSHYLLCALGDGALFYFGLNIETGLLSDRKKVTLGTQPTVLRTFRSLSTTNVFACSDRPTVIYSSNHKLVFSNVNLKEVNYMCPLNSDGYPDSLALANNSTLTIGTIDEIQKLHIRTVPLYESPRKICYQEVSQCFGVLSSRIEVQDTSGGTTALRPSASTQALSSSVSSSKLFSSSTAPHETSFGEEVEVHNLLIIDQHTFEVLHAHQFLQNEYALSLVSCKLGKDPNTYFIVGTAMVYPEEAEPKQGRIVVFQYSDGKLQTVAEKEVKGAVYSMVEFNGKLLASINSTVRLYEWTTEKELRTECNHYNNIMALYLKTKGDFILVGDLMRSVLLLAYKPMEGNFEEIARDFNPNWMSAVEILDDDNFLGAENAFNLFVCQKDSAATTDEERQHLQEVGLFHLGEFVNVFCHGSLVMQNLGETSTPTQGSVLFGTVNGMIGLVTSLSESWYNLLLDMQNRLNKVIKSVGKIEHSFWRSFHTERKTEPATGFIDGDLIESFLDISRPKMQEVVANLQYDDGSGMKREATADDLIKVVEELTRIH
Description: as §1, §2, §3, §4, §5, §6, §7, §8

IKZF2 = target: T3, IKZF2 (Homo sapiens, UniProt Q96SW2+Q9UKS7); test: Western blot degradation of IKZF2 (hPBMC)
T3 construct: evaluate the effects of the compounds of the present disclosure on the expression of target proteins in cells; endogenous in cells; host or cells: hPBMC
T3 sequence (Q9UKS7 whole entry): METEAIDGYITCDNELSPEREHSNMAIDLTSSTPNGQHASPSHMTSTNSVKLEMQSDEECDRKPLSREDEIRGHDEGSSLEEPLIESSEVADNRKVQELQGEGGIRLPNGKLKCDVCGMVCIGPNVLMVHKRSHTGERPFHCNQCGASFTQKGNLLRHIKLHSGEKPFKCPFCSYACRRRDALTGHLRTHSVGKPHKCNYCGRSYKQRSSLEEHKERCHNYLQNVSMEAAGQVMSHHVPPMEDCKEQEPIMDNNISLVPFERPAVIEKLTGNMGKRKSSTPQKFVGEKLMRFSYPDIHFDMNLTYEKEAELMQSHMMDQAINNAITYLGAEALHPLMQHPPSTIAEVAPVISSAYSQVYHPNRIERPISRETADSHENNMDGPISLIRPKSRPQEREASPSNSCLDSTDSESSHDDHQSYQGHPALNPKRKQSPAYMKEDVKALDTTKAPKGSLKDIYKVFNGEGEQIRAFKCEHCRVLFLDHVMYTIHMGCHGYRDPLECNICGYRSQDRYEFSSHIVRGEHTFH
T3 sequence (Q96SW2 whole entry): as the sequence (Q96SW2 whole entry) above
T3 sequence (Q16531 whole entry partner): as the sequence (Q16531 whole entry partner) above
Description: as §1, §2, §3, §4, §5, §6, §7, §8

IKZF3 = target: T4, IKZF3 (Homo sapiens, UniProt Q96SW2+Q9UKT9); test: Western blot degradation of IKZF3 (hPBMC)
T4 construct: evaluate the effects of the compounds of the present disclosure on the expression of target proteins in cells; endogenous in cells; host or cells: hPBMC
Description: as §1, §2, §3, §4, §5, §6, §7, §8

CK1a = target: T5, CK1a (Homo sapiens, UniProt P48729+Q96SW2); test: Western blot degradation of CK1a (hPBMC)
T5 construct: evaluate the effects of the compounds of the present disclosure on the expression of target proteins in cells; endogenous in cells; host or cells: hPBMC
T5 sequence (P48729 whole entry): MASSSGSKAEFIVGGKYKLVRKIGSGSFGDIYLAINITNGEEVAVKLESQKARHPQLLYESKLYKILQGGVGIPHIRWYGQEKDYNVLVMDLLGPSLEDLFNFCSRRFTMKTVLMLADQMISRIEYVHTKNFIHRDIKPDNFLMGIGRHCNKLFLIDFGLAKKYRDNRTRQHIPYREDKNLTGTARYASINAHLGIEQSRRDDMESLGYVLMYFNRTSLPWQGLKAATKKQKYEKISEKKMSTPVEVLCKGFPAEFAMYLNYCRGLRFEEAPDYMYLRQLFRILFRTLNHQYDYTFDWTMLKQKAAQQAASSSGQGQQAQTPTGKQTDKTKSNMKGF
T5 sequence (Q96SW2 whole entry): as the sequence (Q96SW2 whole entry) above
T5 sequence (Q16531 whole entry partner): as the sequence (Q16531 whole entry partner) above
Description: as §1, §2, §3, §4, §5, §6, §7, §8

GSPT1 = target: T6, GSPT1 (Homo sapiens, UniProt P15170+Q96SW2); test: Western blot degradation of GSPT1 (hPBMC)
T6 construct: evaluate the effects of the compounds of the present disclosure on the expression of target proteins in cells; endogenous in cells; host or cells: hPBMC
T6 sequence (P15170 whole entry): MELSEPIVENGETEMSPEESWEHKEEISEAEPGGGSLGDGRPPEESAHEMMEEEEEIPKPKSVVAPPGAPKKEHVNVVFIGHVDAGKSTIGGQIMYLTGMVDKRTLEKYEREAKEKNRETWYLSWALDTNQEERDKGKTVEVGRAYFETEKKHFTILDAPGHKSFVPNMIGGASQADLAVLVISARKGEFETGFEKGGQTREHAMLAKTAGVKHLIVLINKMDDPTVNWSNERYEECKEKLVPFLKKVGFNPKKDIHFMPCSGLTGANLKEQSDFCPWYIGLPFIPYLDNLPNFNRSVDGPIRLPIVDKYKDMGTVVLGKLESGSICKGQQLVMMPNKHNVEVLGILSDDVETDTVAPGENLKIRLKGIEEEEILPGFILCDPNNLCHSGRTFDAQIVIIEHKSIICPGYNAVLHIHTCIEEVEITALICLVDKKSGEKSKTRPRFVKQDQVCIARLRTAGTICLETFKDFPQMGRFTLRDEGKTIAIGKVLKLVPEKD
T6 sequence (Q96SW2 whole entry): as the sequence (Q96SW2 whole entry) above
T6 sequence (Q16531 whole entry partner): as the sequence (Q16531 whole entry partner) above
Description: as §1, §2, §3, §4, §5, §6, §7, §8

T1 sequence (P30291 whole entry): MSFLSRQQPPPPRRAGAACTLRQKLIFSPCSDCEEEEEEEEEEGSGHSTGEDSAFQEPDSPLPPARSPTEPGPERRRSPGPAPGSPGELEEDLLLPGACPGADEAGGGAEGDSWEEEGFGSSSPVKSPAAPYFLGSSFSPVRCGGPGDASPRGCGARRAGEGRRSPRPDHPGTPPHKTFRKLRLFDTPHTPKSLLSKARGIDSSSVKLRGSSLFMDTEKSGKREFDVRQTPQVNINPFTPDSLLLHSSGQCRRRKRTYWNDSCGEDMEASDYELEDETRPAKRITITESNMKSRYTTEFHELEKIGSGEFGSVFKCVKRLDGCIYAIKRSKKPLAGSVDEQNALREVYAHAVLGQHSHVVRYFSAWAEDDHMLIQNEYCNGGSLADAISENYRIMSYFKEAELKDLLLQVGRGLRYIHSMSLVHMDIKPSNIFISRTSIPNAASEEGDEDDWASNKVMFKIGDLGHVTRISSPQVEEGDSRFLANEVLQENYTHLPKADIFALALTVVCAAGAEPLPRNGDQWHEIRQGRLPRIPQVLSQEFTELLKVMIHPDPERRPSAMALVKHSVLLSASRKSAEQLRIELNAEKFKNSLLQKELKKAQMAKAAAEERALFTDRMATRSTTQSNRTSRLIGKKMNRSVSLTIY
T1 sequence (Q96SW2 whole entry): as the sequence (Q96SW2 whole entry) above
T1 sequence (Q16531 whole entry partner): as the sequence (Q16531 whole entry partner) above

For `CC(C)(C)[Si](C)(C)OCc1ccncc1NC1CCC(=O)NC1=O` (stereo not drawn) [GT-07638, 3-((4-(((tert-Butyldimethylsilyl)oxy)methyl)pyridin-3-yl)amino)piperidine-2,6-dione], the “Degradation of substrate protein WEE1 (substrate protein remaining %)” value (WEE1) was “A (A is defined as 0% ≤ substrate protein remaining % ≤ 80%)”, the “Degradation of substrate protein IKZF1 (substrate protein remaining %)” value (IKZF1) was “B (B is defined as substrate protein remaining % > 80%)” and the “Degradation of substrate protein IKZF2 (substrate protein remaining %)” value (IKZF2) was “A (A is defined as 0% ≤ substrate protein remaining % ≤ 80%)”. For the same molecule, the “Degradation of substrate protein IKZF3 (substrate protein remaining %)” value (IKZF3) was “A (A is defined as 0% ≤ substrate protein remaining % ≤ 80%)”, the “Degradation of substrate protein CKla (substrate protein remaining %)” value (CK1a) was “B (B is defined as substrate protein remaining % > 80%)” and the “Degradation of substrate protein GSPT1 (substrate protein remaining %)” value (GSPT1) was “A (A is defined as 0% ≤ substrate protein remaining % ≤ 80%)”.

In the case of `NCc1cc(N2CCC(=O)NC2=O)cnc1F` [GT-07729, 1-(5-(Aminomethyl)-6-fluoropyridin-3-yl)dihydropyrimidine-2,4(1H,3H)-dione], the “Degradation of substrate protein WEE1 (substrate protein remaining %)” value (WEE1) is reported as “A (A is defined as 0% ≤ substrate protein remaining % ≤ 80%)”, the “Degradation of substrate protein IKZF1 (substrate protein remaining %)” value (IKZF1) is reported as “A (A is defined as 0% ≤ substrate protein remaining % ≤ 80%)” and the “Degradation of substrate protein IKZF2 (substrate protein remaining %)” value (IKZF2) is reported as “A (A is defined as 0% ≤ substrate protein remaining % ≤ 80%)”. The “Degradation of substrate protein IKZF3 (substrate protein remaining %)” value (IKZF3) was “A (A is defined as 0% ≤ substrate protein remaining % ≤ 80%)”, the “Degradation of substrate protein CKla (substrate protein remaining %)” value (CK1a) was “B (B is defined as substrate protein remaining % > 80%)” and the “Degradation of substrate protein GSPT1 (substrate protein remaining %)” value (GSPT1) was “A (A is defined as 0% ≤ substrate protein remaining % ≤ 80%)”.

For `O=Cc1cncnc1NC1CCC(=O)NC1=O` (stereo not drawn) [GT-07805, 4-((2,6-Dioxopiperidin-3-yl)amino)pyrimidine-5-carbaldehyde], the “Degradation of substrate protein WEE1 (substrate protein remaining %)” value (WEE1) was “B (B is defined as substrate protein remaining % > 80%)”, the “Degradation of substrate protein IKZF1 (substrate protein remaining %)” value (IKZF1) was “A (A is defined as 0% ≤ substrate protein remaining % ≤ 80%)” and the “Degradation of substrate protein IKZF2 (substrate protein remaining %)” value (IKZF2) was “A (A is defined as 0% ≤ substrate protein remaining % ≤ 80%)”. For the same molecule, the “Degradation of substrate protein IKZF3 (substrate protein remaining %)” value (IKZF3) was “A (A is defined as 0% ≤ substrate protein remaining % ≤ 80%)”, the “Degradation of substrate protein CKla (substrate protein remaining %)” value (CK1a) was “B (B is defined as substrate protein remaining % > 80%)” and the “Degradation of substrate protein GSPT1 (substrate protein remaining %)” value (GSPT1) was “B (B is defined as substrate protein remaining % > 80%)”.

With `O=C1CCN(c2cnc(CO)cn2)C(=O)N1` [GT-07634, 1-(5-(Hydroxymethyl)pyrazin-2-yl)dihydropyrimidine-2,4(1H,3H)-dione] the “Degradation of substrate protein WEE1 (substrate protein remaining %)” value (WEE1) was “A (A is defined as 0% ≤ substrate protein remaining % ≤ 80%)”, the “Degradation of substrate protein IKZF1 (substrate protein remaining %)” value (IKZF1) was “A (A is defined as 0% ≤ substrate protein remaining % ≤ 80%)” and the “Degradation of substrate protein IKZF2 (substrate protein remaining %)” value (IKZF2) was “A (A is defined as 0% ≤ substrate protein remaining % ≤ 80%)”. The “Degradation of substrate protein IKZF3 (substrate protein remaining %)” value (IKZF3) was “A (A is defined as 0% ≤ substrate protein remaining % ≤ 80%)”, the “Degradation of substrate protein CKla (substrate protein remaining %)” value (CK1a) was “A (A is defined as 0% ≤ substrate protein remaining % ≤ 80%)” and the “Degradation of substrate protein GSPT1 (substrate protein remaining %)” value (GSPT1) was “B (B is defined as substrate protein remaining % > 80%)”.

With `O=Cc1ccncc1NC1CCC(=O)NC1=O` (stereo not drawn) [GT-07804, 3-((2,6-Dioxopiperidin-3-yl)amino)isonicotinaldehyde] the “Degradation of substrate protein WEE1 (substrate protein remaining %)” value (WEE1) was “B (B is defined as substrate protein remaining % > 80%)”, the “Degradation of substrate protein IKZF1 (substrate protein remaining %)” value (IKZF1) was “B (B is defined as substrate protein remaining % > 80%)” and the “Degradation of substrate protein IKZF2 (substrate protein remaining %)” value (IKZF2) was “A (A is defined as 0% ≤ substrate protein remaining % ≤ 80%)”. The “Degradation of substrate protein IKZF3 (substrate protein remaining %)” value (IKZF3) was “A (A is defined as 0% ≤ substrate protein remaining % ≤ 80%)”, the “Degradation of substrate protein CKla (substrate protein remaining %)” value (CK1a) was “B (B is defined as substrate protein remaining % > 80%)” and the “Degradation of substrate protein GSPT1 (substrate protein remaining %)” value (GSPT1) was “B (B is defined as substrate protein remaining % > 80%)”.

In the case of `O=Cc1ccc(NC2CCC(=O)NC2=O)cn1` (stereo not drawn) [GT-07640, 5-((2,6-Dioxopiperidin-3-yl)amino)picolinaldehyde], the “Degradation of substrate protein WEE1 (substrate protein remaining %)” value (WEE1) is reported as “A (A is defined as 0% ≤ substrate protein remaining % ≤ 80%)”, the “Degradation of substrate protein IKZF1 (substrate protein remaining %)” value (IKZF1) is reported as “A (A is defined as 0% ≤ substrate protein remaining % ≤ 80%)” and the “Degradation of substrate protein IKZF2 (substrate protein remaining %)” value (IKZF2) is reported as “A (A is defined as 0% ≤ substrate protein remaining % ≤ 80%)”. For the same molecule, the “Degradation of substrate protein IKZF3 (substrate protein remaining %)” value (IKZF3) was “A (A is defined as 0% ≤ substrate protein remaining % ≤ 80%)”, the “Degradation of substrate protein CKla (substrate protein remaining %)” value (CK1a) was “B (B is defined as substrate protein remaining % > 80%)” and the “Degradation of substrate protein GSPT1 (substrate protein remaining %)” value (GSPT1) was “A (A is defined as 0% ≤ substrate protein remaining % ≤ 80%)”.

In the case of `O=C1CCC(c2ncc(CO)cc2F)C(=O)N1` (stereo not drawn) [GT-07443, 3-(3-Fluoro-5-(hydroxymethyl)pyridin-2-yl)piperidine-2,6-dione], the “Degradation of substrate protein WEE1 (substrate protein remaining %)” value (WEE1) is reported as “A (A is defined as 0% ≤ substrate protein remaining % ≤ 80%)”, the “Degradation of substrate protein IKZF1 (substrate protein remaining %)” value (IKZF1) is reported as “A (A is defined as 0% ≤ substrate protein remaining % ≤ 80%)” and the “Degradation of substrate protein IKZF2 (substrate protein remaining %)” value (IKZF2) is reported as “A (A is defined as 0% ≤ substrate protein remaining % ≤ 80%)”. The “Degradation of substrate protein IKZF3 (substrate protein remaining %)” value (IKZF3) was “B (B is defined as substrate protein remaining % > 80%)”, the “Degradation of substrate protein CKla (substrate protein remaining %)” value (CK1a) was “A (A is defined as 0% ≤ substrate protein remaining % ≤ 80%)” and the “Degradation of substrate protein GSPT1 (substrate protein remaining %)” value (GSPT1) was “A (A is defined as 0% ≤ substrate protein remaining % ≤ 80%)”.

`O=C1CCN(c2cncc(CCl)n2)C(=O)N1` [GT-07728, 1-(6-(Chloromethyl)pyrazin-2-yl)dihydropyrimidine-2,4(1H,3H)-dione] was tested, and the “Degradation of substrate protein WEE1 (substrate protein remaining %)” value (WEE1) was “A (A is defined as 0% ≤ substrate protein remaining % ≤ 80%)”, the “Degradation of substrate protein IKZF1 (substrate protein remaining %)” value (IKZF1) was “A (A is defined as 0% ≤ substrate protein remaining % ≤ 80%)” and the “Degradation of substrate protein IKZF2 (substrate protein remaining %)” value (IKZF2) was “A (A is defined as 0% ≤ substrate protein remaining % ≤ 80%)”. For the same molecule, the “Degradation of substrate protein IKZF3 (substrate protein remaining %)” value (IKZF3) was “A (A is defined as 0% ≤ substrate protein remaining % ≤ 80%)”, the “Degradation of substrate protein CKla (substrate protein remaining %)” value (CK1a) was “B (B is defined as substrate protein remaining % > 80%)” and the “Degradation of substrate protein GSPT1 (substrate protein remaining %)” value (GSPT1) was “B (B is defined as substrate protein remaining % > 80%)”.

In the case of `NCc1ccc(N2CCC(=O)NC2=O)nc1` [GT-07012, 1-(5-(Aminomethyl)pyridin-2-yl)dihydropyrimidine-2,4(1H,3H)-dione], the “Degradation of substrate protein WEE1 (substrate protein remaining %)” value (WEE1) is reported as “A (A is defined as 0% ≤ substrate protein remaining % ≤ 80%)”, the “Degradation of substrate protein IKZF1 (substrate protein remaining %)” value (IKZF1) is reported as “B (B is defined as substrate protein remaining % > 80%)” and the “Degradation of substrate protein IKZF2 (substrate protein remaining %)” value (IKZF2) is reported as “B (B is defined as substrate protein remaining % > 80%)”. For the same molecule, the “Degradation of substrate protein IKZF3 (substrate protein remaining %)” value (IKZF3) was “A (A is defined as 0% ≤ substrate protein remaining % ≤ 80%)”, the “Degradation of substrate protein CKla (substrate protein remaining %)” value (CK1a) was “B (B is defined as substrate protein remaining % > 80%)” and the “Degradation of substrate protein GSPT1 (substrate protein remaining %)” value (GSPT1) was “A (A is defined as 0% ≤ substrate protein remaining % ≤ 80%)”.
